ChEMBL document CHEMBL5247649, “Comparative Efficacy and Selectivity of Pharmacological Inhibitors of DYRK and CLK Protein Kinases” (J Med Chem, 2023)

Tests used:
[1] = target: Cyclin-dependent kinase 5/CDK5 activator 1 (Homo sapiens, UniProt Q00535); assay: biochemical; assay type: cell-based, Sf9
[2] = target: Casein kinase I isoform epsilon (Homo sapiens, UniProt P49674); assay: biochemical; assay type: cell-based, Sf9
[3] = target: T1, Dual specificity protein kinase CLK1 (Homo sapiens, UniProt P49759); assay: biochemical; assay type: cell-based, Sf9
[4] = target: Dual specificity protein kinase CLK3 (Homo sapiens, UniProt P49761); assay: biochemical; assay type: cell-based, Sf9
[5] = target: T2, Dual specificity tyrosine-phosphorylation-regulated kinase 2 (Homo sapiens, UniProt Q92630); assay: biochemical; assay type: cell-based, Sf9
T2 sequence (Q92630 whole entry): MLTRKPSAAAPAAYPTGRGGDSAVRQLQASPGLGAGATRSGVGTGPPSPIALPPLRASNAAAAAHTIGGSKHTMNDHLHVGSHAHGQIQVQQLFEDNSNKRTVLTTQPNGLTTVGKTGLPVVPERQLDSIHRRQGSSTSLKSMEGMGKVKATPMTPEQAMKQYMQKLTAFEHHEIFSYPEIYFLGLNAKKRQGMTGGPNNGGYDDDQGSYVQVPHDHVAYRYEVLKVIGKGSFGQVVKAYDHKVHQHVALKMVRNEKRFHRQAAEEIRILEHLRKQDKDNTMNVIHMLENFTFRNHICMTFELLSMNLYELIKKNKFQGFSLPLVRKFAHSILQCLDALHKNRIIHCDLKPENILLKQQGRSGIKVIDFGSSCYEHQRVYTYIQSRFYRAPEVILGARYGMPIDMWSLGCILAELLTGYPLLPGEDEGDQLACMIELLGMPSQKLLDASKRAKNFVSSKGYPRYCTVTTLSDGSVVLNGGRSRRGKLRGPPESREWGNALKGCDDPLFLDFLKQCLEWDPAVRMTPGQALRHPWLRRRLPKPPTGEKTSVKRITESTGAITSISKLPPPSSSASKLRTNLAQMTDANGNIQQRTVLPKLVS

[6] = target: T3, Dual specificity tyrosine-phosphorylation-regulated kinase 3 (Homo sapiens, UniProt O43781); assay: biochemical; assay type: cell-based, Sf9
T3 sequence (O43781 whole entry): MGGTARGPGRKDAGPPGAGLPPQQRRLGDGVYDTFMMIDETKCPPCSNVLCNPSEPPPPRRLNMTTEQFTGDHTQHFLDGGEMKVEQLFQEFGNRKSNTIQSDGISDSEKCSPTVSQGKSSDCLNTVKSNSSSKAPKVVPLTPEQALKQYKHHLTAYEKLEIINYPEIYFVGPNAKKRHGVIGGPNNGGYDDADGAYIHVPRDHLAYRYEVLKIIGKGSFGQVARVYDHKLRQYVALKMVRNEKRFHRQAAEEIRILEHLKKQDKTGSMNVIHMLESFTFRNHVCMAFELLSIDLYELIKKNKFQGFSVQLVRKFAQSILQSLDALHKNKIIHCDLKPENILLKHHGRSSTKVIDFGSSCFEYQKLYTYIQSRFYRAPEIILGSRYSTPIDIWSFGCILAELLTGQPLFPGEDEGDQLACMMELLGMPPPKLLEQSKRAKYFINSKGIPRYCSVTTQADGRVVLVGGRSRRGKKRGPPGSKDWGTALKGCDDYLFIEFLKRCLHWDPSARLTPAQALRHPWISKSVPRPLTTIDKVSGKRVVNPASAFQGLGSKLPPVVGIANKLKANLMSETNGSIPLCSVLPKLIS

[7] = target: T4, Dual specificity tyrosine-phosphorylation-regulated kinase 4 (Homo sapiens, UniProt Q9NR20); assay: biochemical; assay type: cell-based, Sf9
T4 sequence (Q9NR20 whole entry): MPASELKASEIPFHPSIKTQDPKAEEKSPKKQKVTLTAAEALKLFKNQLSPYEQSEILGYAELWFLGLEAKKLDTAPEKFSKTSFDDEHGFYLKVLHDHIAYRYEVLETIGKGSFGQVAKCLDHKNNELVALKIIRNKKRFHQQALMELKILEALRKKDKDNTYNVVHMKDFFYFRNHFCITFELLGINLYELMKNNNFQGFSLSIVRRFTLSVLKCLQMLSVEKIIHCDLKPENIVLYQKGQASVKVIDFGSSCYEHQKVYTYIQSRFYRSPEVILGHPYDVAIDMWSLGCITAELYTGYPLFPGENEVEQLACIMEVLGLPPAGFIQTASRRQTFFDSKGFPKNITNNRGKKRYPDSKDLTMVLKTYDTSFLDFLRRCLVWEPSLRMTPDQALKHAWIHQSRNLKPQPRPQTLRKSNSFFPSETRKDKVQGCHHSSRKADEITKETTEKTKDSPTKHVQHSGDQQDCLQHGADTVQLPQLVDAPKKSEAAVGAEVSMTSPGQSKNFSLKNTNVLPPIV

[8] = target: T5, Glycogen synthase kinase-3 beta (Homo sapiens, UniProt P49841); assay: biochemical; assay type: cell-based, Sf9
in vitro = details: mouse, ht-22
[9] = target: Dual specificity protein kinase CLK2 (Homo sapiens, UniProt P49760); assay: biochemical
[10] = target: Dual specificity protein kinase CLK4 (Homo sapiens, UniProt Q9HAZ1); assay: biochemical
[11] = target: T6, Dual specificity tyrosine-phosphorylation-regulated kinase 1A (Homo sapiens, UniProt Q13627); assay: biochemical
[12] = target: T1, Dual specificity protein kinase CLK1; assay: biochemical; assay type: cell-based, Sf9; details: read-out: IC50
[13] = target: T1, Dual specificity protein kinase CLK1
[14] = target: T5, Glycogen synthase kinase-3 beta
[15] = target: T6, Dual specificity tyrosine-phosphorylation-regulated kinase 1A

T5 sequence (P49841 whole entry): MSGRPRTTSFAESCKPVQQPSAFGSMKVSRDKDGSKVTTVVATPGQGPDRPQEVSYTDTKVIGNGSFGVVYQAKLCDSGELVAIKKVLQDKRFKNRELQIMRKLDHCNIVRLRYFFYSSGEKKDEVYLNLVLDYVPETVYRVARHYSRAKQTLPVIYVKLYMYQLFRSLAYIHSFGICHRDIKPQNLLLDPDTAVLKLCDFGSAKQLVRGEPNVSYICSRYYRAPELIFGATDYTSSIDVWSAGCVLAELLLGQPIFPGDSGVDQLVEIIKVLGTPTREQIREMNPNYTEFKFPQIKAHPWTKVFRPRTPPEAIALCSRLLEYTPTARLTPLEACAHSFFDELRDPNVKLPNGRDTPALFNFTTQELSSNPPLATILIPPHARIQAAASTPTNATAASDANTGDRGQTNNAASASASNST
Sequence of Casein kinase I isoform epsilon (P49674 whole entry, canonical isoform): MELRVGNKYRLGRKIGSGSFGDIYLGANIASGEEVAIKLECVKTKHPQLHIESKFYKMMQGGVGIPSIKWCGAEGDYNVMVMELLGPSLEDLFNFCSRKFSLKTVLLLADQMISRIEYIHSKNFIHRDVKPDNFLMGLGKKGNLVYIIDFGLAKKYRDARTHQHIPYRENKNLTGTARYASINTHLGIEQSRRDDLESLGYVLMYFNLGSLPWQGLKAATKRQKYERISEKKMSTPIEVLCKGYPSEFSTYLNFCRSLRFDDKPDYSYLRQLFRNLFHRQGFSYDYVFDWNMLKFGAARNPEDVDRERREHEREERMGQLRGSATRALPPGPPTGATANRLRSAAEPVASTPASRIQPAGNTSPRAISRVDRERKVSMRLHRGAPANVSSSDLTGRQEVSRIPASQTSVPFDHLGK
Sequence of Dual specificity protein kinase CLK3 (P49761 whole entry): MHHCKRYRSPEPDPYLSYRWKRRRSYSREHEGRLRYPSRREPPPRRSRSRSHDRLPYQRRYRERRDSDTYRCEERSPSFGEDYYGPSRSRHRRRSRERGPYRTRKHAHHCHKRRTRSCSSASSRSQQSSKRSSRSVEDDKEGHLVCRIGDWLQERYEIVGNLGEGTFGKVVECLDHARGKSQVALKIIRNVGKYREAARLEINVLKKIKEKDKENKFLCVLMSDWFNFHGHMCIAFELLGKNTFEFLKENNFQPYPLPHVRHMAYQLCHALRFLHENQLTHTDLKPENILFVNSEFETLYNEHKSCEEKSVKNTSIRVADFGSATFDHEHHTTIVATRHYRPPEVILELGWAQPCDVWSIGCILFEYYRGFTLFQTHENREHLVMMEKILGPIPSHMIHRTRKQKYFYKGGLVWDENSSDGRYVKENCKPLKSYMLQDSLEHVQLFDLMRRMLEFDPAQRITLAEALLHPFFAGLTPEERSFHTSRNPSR
Sequence of Dual specificity protein kinase CLK4 (Q9HAZ1 whole entry): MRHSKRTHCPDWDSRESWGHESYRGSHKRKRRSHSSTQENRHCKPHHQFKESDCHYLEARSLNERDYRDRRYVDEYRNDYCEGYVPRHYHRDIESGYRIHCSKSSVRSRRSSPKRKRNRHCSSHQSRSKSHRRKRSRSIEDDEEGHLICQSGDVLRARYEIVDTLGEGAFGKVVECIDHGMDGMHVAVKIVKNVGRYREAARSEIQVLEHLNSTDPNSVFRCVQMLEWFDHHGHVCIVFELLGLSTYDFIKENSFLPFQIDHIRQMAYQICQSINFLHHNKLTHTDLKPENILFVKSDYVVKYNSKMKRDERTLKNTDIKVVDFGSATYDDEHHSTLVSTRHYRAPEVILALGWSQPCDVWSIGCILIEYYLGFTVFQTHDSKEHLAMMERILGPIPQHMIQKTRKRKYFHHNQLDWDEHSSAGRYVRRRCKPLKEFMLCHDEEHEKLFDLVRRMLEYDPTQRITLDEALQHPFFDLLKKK
Sequence of Cyclin-dependent kinase 5/CDK5 activator 1 (Q00535 whole entry, canonical isoform): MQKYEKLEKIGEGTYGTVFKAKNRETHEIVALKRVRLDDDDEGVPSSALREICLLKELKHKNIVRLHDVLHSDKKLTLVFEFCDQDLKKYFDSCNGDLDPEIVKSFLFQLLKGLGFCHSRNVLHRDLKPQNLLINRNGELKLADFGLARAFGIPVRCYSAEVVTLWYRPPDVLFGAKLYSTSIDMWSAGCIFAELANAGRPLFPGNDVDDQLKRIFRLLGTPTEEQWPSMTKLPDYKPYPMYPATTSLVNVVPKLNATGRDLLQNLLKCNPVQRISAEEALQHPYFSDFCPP
Sequence of Cyclin-dependent kinase 5/CDK5 activator 1 (Q15078 whole entry, further chain, canonical isoform): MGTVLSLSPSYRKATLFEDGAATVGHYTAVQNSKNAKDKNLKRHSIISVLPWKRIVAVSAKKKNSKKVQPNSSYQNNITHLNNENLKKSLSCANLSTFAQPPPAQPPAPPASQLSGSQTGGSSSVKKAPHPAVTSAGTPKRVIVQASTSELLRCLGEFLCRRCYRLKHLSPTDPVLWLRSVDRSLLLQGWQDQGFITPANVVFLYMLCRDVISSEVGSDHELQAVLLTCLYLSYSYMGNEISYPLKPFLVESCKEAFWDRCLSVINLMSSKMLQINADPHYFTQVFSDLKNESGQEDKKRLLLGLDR
Sequence of Dual specificity protein kinase CLK2 (P49760 whole entry): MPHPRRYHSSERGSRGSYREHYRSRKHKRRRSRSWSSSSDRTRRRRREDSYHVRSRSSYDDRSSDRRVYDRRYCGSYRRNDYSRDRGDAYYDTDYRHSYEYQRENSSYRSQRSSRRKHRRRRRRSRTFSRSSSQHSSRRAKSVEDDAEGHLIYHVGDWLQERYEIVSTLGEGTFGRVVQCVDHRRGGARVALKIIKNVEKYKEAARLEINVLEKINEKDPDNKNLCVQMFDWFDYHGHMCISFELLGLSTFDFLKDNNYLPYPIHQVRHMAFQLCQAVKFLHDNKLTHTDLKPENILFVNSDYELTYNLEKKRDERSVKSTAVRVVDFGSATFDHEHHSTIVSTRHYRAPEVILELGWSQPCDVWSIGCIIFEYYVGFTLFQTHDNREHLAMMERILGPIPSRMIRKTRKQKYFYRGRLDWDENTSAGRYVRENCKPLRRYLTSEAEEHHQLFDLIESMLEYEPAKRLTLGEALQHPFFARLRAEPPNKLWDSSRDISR
T1 sequence (P49759 whole entry): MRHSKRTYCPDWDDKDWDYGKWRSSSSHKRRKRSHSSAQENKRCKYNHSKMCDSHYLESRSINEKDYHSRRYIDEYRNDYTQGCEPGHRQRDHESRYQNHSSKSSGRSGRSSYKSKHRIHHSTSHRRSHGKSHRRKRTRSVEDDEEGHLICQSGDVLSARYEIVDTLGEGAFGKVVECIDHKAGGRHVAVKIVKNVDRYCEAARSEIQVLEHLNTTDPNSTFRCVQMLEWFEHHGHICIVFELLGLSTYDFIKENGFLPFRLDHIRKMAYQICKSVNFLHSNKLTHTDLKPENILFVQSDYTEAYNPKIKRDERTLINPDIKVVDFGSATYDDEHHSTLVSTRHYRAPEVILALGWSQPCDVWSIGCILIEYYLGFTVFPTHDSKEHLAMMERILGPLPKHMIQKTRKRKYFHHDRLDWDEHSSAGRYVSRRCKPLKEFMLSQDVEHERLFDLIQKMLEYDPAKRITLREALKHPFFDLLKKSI

| Compound | IC50 [1] [µM] | IC50 [2] [µM] | IC50 [3] [µM] | IC50 [4] [µM] | IC50 [5] [µM] | IC50 [6] [µM] | IC50 [7] [µM] | IC50 [8] [µM] | IC50 at 48 h (in vitro) [µM] | IC50 [9] [µM] | IC50 [10] [µM] | IC50 [11] [µM] | IC50 [12] [µM] | Kd [13] [nM] | Kd [14] [µM] | IC50 [15] [µM] |
| --- | --- | --- | --- | --- | --- | --- | --- | --- | --- | --- | --- | --- | --- | --- | --- | --- |
| CC(=O)c1nccc2c1[nH]c1ccccc12 | > 10 | > 10 | > 10 | > 10 | > 10 | > 10 | > 10 | > 10 | > 100 | > 10 | > 10 | > 10 |  |  |  |  |
| Cc1ccc([N+](=O)[O-])cc1S(=O)(=O)N(C)/N=C/c1cnc2ccc(Br)cn12 | 0.0245 | 0.405 | 0.0188 | 0.0119 | 0.118 | 0.0104 | 2.59 | 0.0176 | 0.16 | 0.0011 | 0.0069 |  | 0.0308 | 0.056 | 0.00393 |  |
| Cc1cccc(N(C)c2nccc(-c3cnn4ncccc34)n2)c1 | > 10 | > 10 | 0.125 | > 10 | > 10 | > 10 | > 10 | > 10 | 30.1 | 0.269 | 0.0909 | 0.435 |  |  |  |  |
| Cn1cc(-c2ccc3occ(-c4cccc(-c5ccncc5)c4)c3n2)cn1 | > 10 | > 10 |  |  | 3.04 | > 10 | > 10 | 2.86 | 2.6 |  | 0.0839 | 1.14 |  |  |  |  |
| CCN(CC)Cc1ccc(OC)c(-c2cc3c(-c4ccc(C(=O)O)c(C(C)C)c4)ccnc3[nH]2)c1 | > 10 | > 10 | 0.607 | 2.41 | > 10 | > 10 | > 10 | 1.33 | 8.1 | 0.772 | 0.672 | 8.26 |  |  |  |  |
| Cc1cc(C(=O)NC2Nc3cccc(C)c3N2[C@H]2CCCCN(C(=O)/C=C/CN(C)C)C2)ccn1 (stereo not given in full) | > 10 | > 10 | > 10 | > 10 | > 10 | > 10 | > 10 | 5.26 | 60 | 5.96 | > 10 | > 10 |  |  |  |  |
| CCNc1cc(Nc2ccc(C(=O)N3CCC(N4CCOCC4)CC3)cc2OC)nc2[nH]cc(C(F)(F)F)c12 | > 10 | 7.99 | 0.0713 | 2.05 | > 10 | 7.15 | > 10 | > 10 | 19.9 | 0.0405 | 0.0211 |  | 0.0929 | 1.39 | > 10 |  |
| O=C1Nc2cc(S(=O)(=O)Cc3c(Cl)cccc3Cl)ccc2S/C1=C\c1ccc(O)c([N+](=O)[O-])c1 | > 10 | 4.38 | 6.07 | > 10 | 1.75 | > 10 | > 10 | > 10 | 1 | > 10 | > 10 | 3.09 |  |  |  |  |
| CCOc1ccc2nc(N3CCCN(C(=S)Nc4ccccc4F)CC3)c(C#N)cc2c1 | > 10 | > 10 | > 10 | > 10 | > 10 | > 10 | > 10 | > 10 | > 100 | > 10 | > 10 | > 10 |  |  |  |  |
| CN1CCN(C(=O)C(C)(C)c2ccc(C(=O)Cc3cn4cc(-c5ccncc5)ccc4n3)cc2)CC1 | > 10 | > 10 | 0.107 | 0.74 | > 10 | > 10 | > 10 | > 10 | 7.9 | 0.147 | 0.0491 | 0.253 | 0.121 |  |  | 0.0728 |
| CC(C)(c1ccc(O)cc1)c1ccc(O)cc1 [BISPHENOL A] | > 10 | > 10 | > 10 | > 10 | > 10 | > 10 | > 10 | > 10 | 97 | > 10 | > 10 | > 10 |  |  |  |  |
| COc1cc(/C=C/C(=O)CC(=O)/C=C/c2ccc(O)c(OC)c2)ccc1O [CURCUMIN] | > 10 | > 10 | > 10 | > 10 | 1.06 | 4.26 | > 10 | > 10 | 52.4 | > 10 | 9.75 |  | 4.92 | > 1000 | > 10 |  |
| O=C(O[C@@H]1Cc2c(O)cc(O)cc2O[C@@H]1c1cc(O)c(O)c(O)c1)c1cc(O)c(O)c(O)c1 [EPIGALOCATECHIN GALLATE] | 0.431 | 0.365 | 0.0716 | 2.58 | 2 | 1.62 | 5.2 | 6.27 | 23.8 | 1.32 | 0.368 | 0.491 | > 10 |  |  | 0.766 |
| COc1cc(CCc2c(O)ccc(O[C@@H]3O[C@H](CO)[C@@H](O)[C@H](O)[C@H]3O)c2C(C)=O)ccc1O [SCORZODIHYDROSTILBENE A] | > 10 | > 10 | > 10 | > 10 | > 10 | > 10 | > 10 | > 10 | > 100 | > 10 | > 10 | 2.3 |  |  |  |  |
